Experiments:
[1] = molecular target: Epidermal growth factor receptor (Homo sapiens, UniProt P00533); assay: Inhibition of wild type EGFR (unknown origin) by Z'-Lyte kinase assay
[2] = tested on: HT-29; assay: Cytotoxicity against human HT-29 cells after 72 hrs under normoxia conditions by SRB assay; type: functional, cell-based; settings: HT-29, 72 h
[3] = tested on: HT-29; assay: Cytotoxicity against human HT-29 cells after 72 hrs under hypoxia conditions by SRB assay; type: functional, cell-based; settings: HT-29, 72 h
[4] = Metabolic stability in mouse liver microsomes assessed as compound remaining at 5 uM after 30 mins under hypoxia conditions in presence of NADPH by HPLC method; type: ADME; settings: read-out: Stability
[5] = Metabolic stability in mouse liver microsomes assessed as compound remaining at 5 uM after 30 mins under normoxia conditions in presence of NADPH by HPLC method; type: ADME; settings: read-out: Stability
[6] = Reductive drug activation assessed as reactive radical formation at 4.1 umol in pH 7.4 PBS in presence of zinc dust and ammonium chloride by HPLC-Q-ToF-MS method; settings: buffer

Sequence of Epidermal growth factor receptor (P00533 whole entry): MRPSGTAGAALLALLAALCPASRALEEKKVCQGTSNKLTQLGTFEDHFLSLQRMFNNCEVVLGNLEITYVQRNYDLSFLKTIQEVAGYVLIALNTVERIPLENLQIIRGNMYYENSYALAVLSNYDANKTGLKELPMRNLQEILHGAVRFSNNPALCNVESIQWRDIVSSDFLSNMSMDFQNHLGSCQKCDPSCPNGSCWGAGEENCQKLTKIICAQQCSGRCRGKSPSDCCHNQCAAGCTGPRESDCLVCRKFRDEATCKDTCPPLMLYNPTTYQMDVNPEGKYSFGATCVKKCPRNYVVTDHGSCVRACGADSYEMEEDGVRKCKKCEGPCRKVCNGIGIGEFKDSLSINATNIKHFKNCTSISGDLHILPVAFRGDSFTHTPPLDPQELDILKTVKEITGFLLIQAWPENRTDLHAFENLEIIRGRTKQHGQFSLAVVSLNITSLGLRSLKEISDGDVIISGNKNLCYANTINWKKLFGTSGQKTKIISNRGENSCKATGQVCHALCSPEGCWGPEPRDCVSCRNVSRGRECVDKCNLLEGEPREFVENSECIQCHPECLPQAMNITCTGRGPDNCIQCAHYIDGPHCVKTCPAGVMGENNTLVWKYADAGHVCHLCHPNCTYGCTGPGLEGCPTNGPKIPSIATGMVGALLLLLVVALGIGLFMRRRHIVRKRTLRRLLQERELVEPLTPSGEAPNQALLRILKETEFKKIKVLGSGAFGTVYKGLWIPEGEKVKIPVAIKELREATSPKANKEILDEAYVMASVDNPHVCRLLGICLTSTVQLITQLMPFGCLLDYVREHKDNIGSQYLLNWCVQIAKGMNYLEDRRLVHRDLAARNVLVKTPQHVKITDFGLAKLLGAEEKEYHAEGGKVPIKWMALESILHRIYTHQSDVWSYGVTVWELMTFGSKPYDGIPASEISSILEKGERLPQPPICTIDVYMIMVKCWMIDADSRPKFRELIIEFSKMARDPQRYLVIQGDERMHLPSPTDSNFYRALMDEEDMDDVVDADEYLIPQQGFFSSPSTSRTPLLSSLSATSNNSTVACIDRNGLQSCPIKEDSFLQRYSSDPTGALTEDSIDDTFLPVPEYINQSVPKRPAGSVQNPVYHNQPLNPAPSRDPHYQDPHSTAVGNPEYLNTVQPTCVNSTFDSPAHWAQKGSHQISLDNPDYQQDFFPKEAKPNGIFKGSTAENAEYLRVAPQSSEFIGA

Row | Structure (SMILES) | IC50 [1] | remaining at 0.5 h, 5 µM [4] | remaining at 0.5 h, 5 µM [5] | Drug metabolism [6] | IC50 [2] | IC50 [3]
1 | COc1cc2ncnc(Nc3ccc(F)c(Cl)c3)c2cc1OCCn1ccnc1[N+](=O)[O-] | 0.00305 µM | – | – | – | > 50 µM | 10 µM
2 | COc1cc2ncnc(Nc3ccc(OCc4cccc(F)c4)c(Cl)c3)c2cc1OCCCCCn1ccnc1[N+](=O)[O-] | 0.0512 µM | – | – | – | 3.09 µM | 1.36 µM
3 | COc1cc2ncnc(Nc3ccc(F)c(Cl)c3)c2cc1OCCCCn1ccnc1[N+](=O)[O-] | 0.00047 µM | < 10% | 70% | metabolite_detected | 2.21 µM | 1.62 µM
4 | COc1cc2ncnc(Nc3ccc(OCc4cccc(F)c4)c(Cl)c3)c2cc1OCCCn1ccnc1[N+](=O)[O-] | 0.0383 µM | – | – | – | 15.5 µM | 20 µM
5 | COc1cc2ncnc(Nc3ccc(F)c(Cl)c3)c2cc1OCCCCCn1ccnc1[N+](=O)[O-] | 0.00051 µM | – | – | – | 17.6 µM | 5.59 µM
6 | C#Cc1cccc(Nc2ncnc3cc(OC)c(OCCCCn4ccnc4[N+](=O)[O-])cc23)c1 | 0.00056 µM | – | – | – | 10.1 µM | 6.9 µM
7 | COc1cc2ncnc(Nc3ccc(F)c(Cl)c3)c2cc1OCCn1c([N+](=O)[O-])cnc1C | 0.0049 µM | – | – | – | > 50 µM | > 50 µM
8 | COc1cc2ncnc(Nc3ccc(F)c(Cl)c3)c2cc1OCCCCCCn1ccnc1[N+](=O)[O-] | – | – | – | – | 12.9 µM | 9.81 µM
9 | Nc1n[n+]([O-])c2ccccc2[n+]1[O-] [TIRAPAZAMINE] | – | – | – | – | > 50 µM | 9.45 µM
10 | COc1cc2ncnc(Nc3ccc(OCc4cccc(F)c4)c(Cl)c3)c2cc1OCCCCCCn1ccnc1[N+](=O)[O-] | 0.0151 µM | – | – | – | > 50 µM | 24.3 µM

The next lines start with results.

Row | IC50 [1] | remaining at 0.5 h, 5 µM [4] | remaining at 0.5 h, 5 µM [5] | Drug metabolism [6] | Structure (SMILES) | IC50 [2] | IC50 [3]
11 | 0.0005 µM | – | – | – | C#Cc1cccc(Nc2ncnc3cc(OC)c(OCCCCCCn4ccnc4[N+](=O)[O-])cc23)c1 | 2.93 µM | 3.46 µM
12 | 0.00118 µM | – | – | – | COc1cc2ncnc(Nc3cccc(Br)c3)c2cc1OCCCn1c([N+](=O)[O-])cnc1C | 15.7 µM | 5.41 µM
13 | 0.0285 µM | – | – | – | COc1cc2ncnc(Nc3ccc(OCc4cccc(F)c4)c(Cl)c3)c2cc1OCCCCn1ccnc1[N+](=O)[O-] | 1.87 µM | 2.07 µM
14 | 0.00108 µM | – | – | – | C#Cc1cccc(Nc2ncnc3cc(OC)c(OCCCn4ccnc4[N+](=O)[O-])cc23)c1 | 5.55 µM | 5.53 µM
15 | – | > 90% | > 90% | – | COc1cc2ncnc(Nc3ccc(F)c(Cl)c3)c2cc1OCCCN1CCOCC1 [GEFITINIB] | – | –
16 | 0.00343 µM | – | – | – | COc1cc2ncnc(Nc3ccc(F)c(Cl)c3)c2cc1OCCCn1c([N+](=O)[O-])cnc1C | 23.2 µM | 11.5 µM
17 | 0.00066 µM | – | – | – | COc1cc2ncnc(Nc3cccc(Br)c3)c2cc1OCCCn1ccnc1[N+](=O)[O-] | 4.48 µM | 4.01 µM
18 | 0.00053 µM | – | – | – | COc1cc2ncnc(Nc3ccc(F)c(Cl)c3)c2cc1OCCCCn1c([N+](=O)[O-])cnc1C | 8.21 µM | 9.98 µM
19 | 0.00089 µM | – | – | – | COc1cc2ncnc(Nc3ccc(F)c(Cl)c3)c2cc1OCCCn1ccnc1[N+](=O)[O-] | 8.39 µM | 7.17 µM
20 | 0.00049 µM | – | – | – | C#Cc1cccc(Nc2ncnc3cc(OC)c(OCCCCCn4ccnc4[N+](=O)[O-])cc23)c1 | 3.55 µM | 3.05 µM
